Laboratory results: PMC11807808, “In vitro gastrointestinal digestion simulation screening of novel ACEI peptides from broccoli: mechanism in high glucose-induced VSMCs dysfunction” (Frontiers in Nutrition, 2025)
Entries after “also recorded” stand apart in the source; their conditions may differ. Where no end group is shown, it is not given here.

Experiments:
[1] = target: T1, Angiotensin converting enzyme (ACE) (Homo sapiens, UniProt P12821); test: ACE inhibitory (ACEI) activity, HHL substrate, HPLC detection of hippuric acid; type: biochemical; settings: synthetic peptides; HHL 5 mM, ACE 0.025 U/mL, 37°C 60 min, HPLC 228 nm
T1 construct: purchased Sigma–Aldrich (Shanghai) Trading Co., Ltd
T1 sequence (P12821 30-1306, species assumed): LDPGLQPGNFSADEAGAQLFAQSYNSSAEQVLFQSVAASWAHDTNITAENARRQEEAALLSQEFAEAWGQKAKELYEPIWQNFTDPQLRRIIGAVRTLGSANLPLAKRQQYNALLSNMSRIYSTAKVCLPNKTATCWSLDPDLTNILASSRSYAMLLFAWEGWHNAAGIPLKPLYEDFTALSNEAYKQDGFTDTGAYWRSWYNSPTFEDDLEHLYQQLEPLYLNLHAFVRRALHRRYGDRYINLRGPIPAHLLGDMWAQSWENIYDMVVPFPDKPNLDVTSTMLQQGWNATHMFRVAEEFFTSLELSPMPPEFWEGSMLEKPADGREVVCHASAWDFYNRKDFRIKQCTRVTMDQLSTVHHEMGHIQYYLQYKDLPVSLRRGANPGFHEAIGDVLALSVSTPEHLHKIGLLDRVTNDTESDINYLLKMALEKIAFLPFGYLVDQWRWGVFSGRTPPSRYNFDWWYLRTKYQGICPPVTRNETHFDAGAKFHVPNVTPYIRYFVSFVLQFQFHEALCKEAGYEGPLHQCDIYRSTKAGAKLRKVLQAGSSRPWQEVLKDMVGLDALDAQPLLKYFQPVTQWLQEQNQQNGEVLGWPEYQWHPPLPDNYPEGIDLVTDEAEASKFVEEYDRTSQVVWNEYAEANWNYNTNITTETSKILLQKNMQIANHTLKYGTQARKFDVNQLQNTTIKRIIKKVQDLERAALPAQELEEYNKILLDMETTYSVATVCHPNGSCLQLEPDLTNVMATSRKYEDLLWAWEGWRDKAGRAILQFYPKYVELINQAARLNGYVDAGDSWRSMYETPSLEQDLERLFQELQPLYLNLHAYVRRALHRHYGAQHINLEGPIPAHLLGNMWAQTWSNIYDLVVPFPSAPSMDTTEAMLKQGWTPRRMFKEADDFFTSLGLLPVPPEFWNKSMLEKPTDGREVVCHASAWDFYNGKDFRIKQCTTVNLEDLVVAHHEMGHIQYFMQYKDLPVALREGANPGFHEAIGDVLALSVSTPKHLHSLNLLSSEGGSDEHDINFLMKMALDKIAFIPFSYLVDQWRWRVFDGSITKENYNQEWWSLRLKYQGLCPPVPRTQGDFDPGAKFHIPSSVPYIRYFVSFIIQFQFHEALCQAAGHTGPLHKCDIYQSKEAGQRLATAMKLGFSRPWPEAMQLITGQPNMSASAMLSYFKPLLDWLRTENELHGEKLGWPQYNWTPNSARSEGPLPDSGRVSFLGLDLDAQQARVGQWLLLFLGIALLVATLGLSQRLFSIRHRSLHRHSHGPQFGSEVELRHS
Description: Eighty microlitres of HHL solution (5 mM) and 30 μL of sample mixture were incubated at 37°C for 5 min. Then, 40 μL of ACE solution (0.025 U/mL) was added to the mixture, followed by incubation at 37°C for 60 min. The reaction was terminated by adding 120 μL of 1 M HCl. After the addition of 700 μL of pure water, the mixture was filtered through a 0.22 μm membrane ([25]). The experiment included four groups: a control group (pure water), a negative control group (blank digestion solution), a positive control group (protein mixture), and a sample group (protein digestion solution). In the control group, HCl was added immediately after ACE.
Chromatograms were recorded via an Agilent instrument (Agilent, California, USA). Column: CAPCELL CORE AQ C18, 4.6 × 150 mm, 5 μm (Shiseido, Tokyo, Japan). Column temperature: 30°C. Flow rate: 1 mL/min. The injection volume was 100 μL. Mobile phase: 0.1% trifluoroacetic acid aqueous solution (A) and pure acetonitrile (B). Detection wavelength: 228 nm. Elution gradient: 0–10 min, 80% A/20% B. The calculation method was as follows:
Inhibitionrate(%)=[PA]c-[PA]s/[PA]c-[PA]b×100%
where [PA]c, [PA]s, and [PA]b represented the peak area of HA at 228 nm of the control group, experimental group, and blank group, respectively.

[2] = In vitro simulated gastrointestinal digestion (pepsin, trypsin): digestibility / digestion stability; type: in vitro ADME; settings: stability under digestion conditions in vitro; pepsin pH 2.0 37°C 2 h, then trypsin pH 8.0 37°C 2 h as described for the hydrolysate; mean ± spread
Description: In vitro digestion simulation was performed based on the method of Hao et al. ([24]). Broccoli protein suspension (5%, w/v) was hydrolyzed with papain (1%, E/S ratio) for 6 h (pH 7.0, 55°C). After hydrolysis, inactivated at 100°C for 10 min and cooled to 25°C. Based on the method of Hao et al. ([24]), the simulated digestion of broccoli papain hydrolysate was conducted. In short, 0.1 g pepsin (pH = 2.0) was mixed with the hydrolysate and placed at 37°C for 2 h. Then 0.2 g trypsin (pH = 8.0) was added and incubated at 37°C for 2 h. After enzymatic hydrolysis, the enzyme was inactivated at 95°C for 10 min, cooled to 25°C, and the supernatant was collected. Subsequently, freeze-dried broccoli crude peptide was applied to the determination of ACEI activity.
The crude protein hydrolysis of broccoli was analyzed by high performance liquid chromatography (Agilent 1260, California, USA). The Column was XBridge Peptides BEH C18 Column 130A, 4.6 × 250 mm, 5 μm (Waters, Massachusetts, USA). Column temperature: 37°C. Flow rate: 1 mL/min. Sample size: 100 μL. Mobile phase: 0.1% trifluoroacetic acid aqueous solution (phase A) and pure acetonitrile (phase B). Detection wavelengths: 214 and 280 nm. Elution gradient: 0–5 min, 100%A/0%B; 5–25 min, 60%A/40%B; 25–26 min, 20%A/80%B; 26–31 min, 20%A/80%B; 31–32 min, 100%A/0%B; 32–37 min, 100%A/0%B.

VSMCs [3] = test: CCK-8 cell viability of VSMCs in high glucose; type: cell-based, Sprague–Dawley rats; settings: high glucose (HG); for VSMC proliferation / viability: peptides 0.0313-0.5 mg/mL
Description: (§1) Thoracic aortas from male Sprague–Dawley rats (250–300 g) were dispersed in HBSS solution, which contained 1 mg/mL collagenase II (146 U/mg, Worthington Biochemical Corp., Freehold, NJ) and 0.5 mg/mL elastase I (32 U/mg, Worthington Biochemical Corp., Freehold, NJ). The mixture was digested for 90 min to obtain the appropriate VSMCs. The obtained VSMCs were subsequently cultured in DMEM supplemented with 10% FBS, 2 mmol/L glutamine, and 1 g/L D-glucose at 37°C in a humidified atmosphere of 5% CO2. The purity of the VSMCs was evaluated by the smooth muscle cell-specific marker SM22α (>97% for the stained cells). All the VSMCs used for the experiments were between the 3rd and 8th passages.
The cells (4 × 10^3 cells/well) were seeded into 96-well plates and cultured overnight. The cells were subjected to serum deprivation for 24 h. Then, the culture mixture was removed, and 100 μL of free FBS culture mixture was added to the above culture mixture. Ten microliters of CCK-8 solution was added to each well. The plates were read with a BioTek Epoch 2 Microplate Spectrophotometer (Agilent Technologies, California, USA). The experiment was organized into seven groups, which included a normal group, a high glucose group, and peptide segments: HLEVR, LTEVR, LEHGF, HLVNK, and LLDGR. These segments were tested at concentrations of 0.0313, 0.0625, 0.125, 0.25, and 0.5 mg/mL.

Ang II = Ang II level in VSMCs cultured in high glucose (ELISA); type: cell-based, Sprague–Dawley rats; settings: high glucose (HG) + peptide
Description: as §1
The cells (2 × 10^4 cells per well) were first seeded into 24-well plates overnight. The supernatants were collected to measure the expression levels of Ang II via angiotensin II ELISA kits (ER1637, FineTest, Wuhan, China) according to the manufacturer's protocol. The absorbance of each well at 450 nm was determined via a multimode plate reader (BioTek Epoch2, Santa Clara, US).

VSMCs [4] = test: Western blot of protein expression in VSMCs (Ang II-induced or high glucose); type: cell-based, Sprague–Dawley rats; settings: for ACE expression / expression of PCNA, MMP2, Bcl2 and Bax: VSMCs in high glucose (HG) + peptide
Description: as §1
Protein was extracted with RIPA buffer. Equal amounts of protein were separated via 8–10% SDS–PAGE (ACE, Changzhou, China) and then transferred to 0.22 μm PVDF membranes (Millipore, Bedford, MA, USA). The membranes were blocked with 5% skim milk and incubated overnight with the appropriate primary antibodies. HRP-conjugated secondary antibodies were then applied for binding and visualization through Western blot luminol reagent. Densitometry quantification was performed with ImageJ-V1.8.0.

Caco-2 cells = test: Caco-2 cell monolayer transport model (absorption simulation); type: in vitro ADME; settings: Caco-2 monolayer integrity marker, 12-well inserts, TEER 468.09 ± 37.54 Ω/cm^2
Description: Caco-2 cells were obtained from the Cell Bank of the Chinese Academy of Sciences. The cells were cultured in Dulbecco's modified Eagle's medium (DMEM) supplemented with 20% FBS and 1% penicillin/streptomycin (P/S) at 37°C and 5% CO2 in a humidified incubator.
Caco-2 cells were seeded in each chamber of a 12-well plate, which was equipped with cell culture inserts ([26]). The transepithelial electrical resistance (TEER) across the monolayer was measured every 2 days via a cell resistance meter (RE1600, Beijing Jegon Instrumentation Co., Ltd.). The integrity of the cell monolayer was assessed with fluorescein isothiocyanate (FITC). TEER values > 350 Ω/cm^2 were considered to indicate successful construction and validation of the Caco-2 cell transport model. The FITC permeability was < 5 × 10^−[…], indicating the integrity of the cell monolayer.
Broccoli protease hydrolysate was added to the apical (AP) side. After 120 min, the media from both the AP and basolateral (BL) sides were collected for subsequent analysis. The wells without cells or samples served as the control group, whereas the wells without samples served as the blank group.

## HLEVR [HLEVR]
[1]
  IC50: 3.19 ± 0.23 mM
[2]
  Digestion stability (%): 94.27 ± 2.64%

## HLVNK [HLVNK]
[1]
  IC50: 0.06 ± 0.01 mM
[2]
  Digestion stability (%): 95.78 ± 3.73%
VSMCs [3]
  VSMC proliferation / viability: effectively reduce VSMC viability
Ang II
  Ang II levels in VSMCs: significantly inhibit intracellular Ang II levels
Ang II; listed as HLLVNK
  Ang II levels in VSMCs: significantly reduced Ang II levels
VSMCs [4]
  ACE expression: modulated ACE expression
  expression of PCNA, MMP2, Bcl2 and Bax: significantly restored the expression of these proteins

## LEHGF [LEHGF]
[1]
  IC50: 0.64 ± 0.02 mM
[2]
  Digestion stability (%): 97.85 ± 6.31%

## LLDGR [LLDGR]
[1]
  IC50: 2.81 ± 0.12 mM

## LTEVR [LTEVR]
[1]
  IC50: 17.1 ± 1.37 mM
[2]
  Digestion stability (%): 98.82 ± 3.92%
VSMCs [3]; peptide 0.5 mg/mL
  cell viability of VSMCs: not significant
VSMCs [3]
  VSMC proliferation / viability: effectively reduce VSMC viability
Ang II
  Ang II levels in VSMCs: significantly reduced Ang II levels; also recorded: significantly inhibit intracellular Ang II levels
VSMCs [4]
  ACE expression: modulated ACE expression
  expression of PCNA, MMP2, Bcl2 and Bax: significantly restored the expression of these proteins

## angiotensin II (DRVYIHPF; Angiotensin-2; UniProt P01019 25-32, looked up) [Ang II, angiotensin II, used to induce VSMC dysfunction]
VSMCs [4]; VSMCs treated with Ang II
  downregulation of ACE2 expression: 15.60 ± 0.028%
  upregulation of ACE expression: 136.50 ± 0.017%
  upregulation of AT1R expression: 27.31 ± 0.020%
  upregulation of BCL2 expression: 40.26 ± 0.051%
  upregulation of ERK1/2/Total ERK: 128.17 ± 0.028%
  upregulation of MMP2 expression: 14.97 ± 0.044%
  upregulation of PCNA expression: 49.56 ± 0.01%
  upregulation of pp38/Total p38: 14.58 ± 0.041%

## lucifer yellow
Caco-2 cells
  apparent permeability coefficient (Papp): 2.87 ± 0.53 × 10^−7 cm^2/s
